≈ marks a conversion by molar mass, not a printed value.

Series [1] in a line: Kinetic solubility analysis (CLND). It counts as physicochemical. As to conditions: 24.2 °C, kinetic from dmso stock, from DMSO stocks, 1.0% DMSO, 24-hour incubation at ambient temperature, medium (0.1N HCl or PBS 7.4) not stated. The protocol:
Kinetic Solubility Analysis (CLND)
0.1N HCl: Hydrochloric acid, 0.1N standardized solution.
1×PBS, 7.4: Phosphate Buffered Saline solution 10×, PBS 50 mL was added to approximately 450 mL HPLC grade H2O. The volume of the solution was then adjusted to 500 mL for a total dilution factor of 1:10 and a final PBS concentration of 1×. The pH of the final solution was measured and found to be 7.4.
Kinetic Solubility from DMSO Stocks: 100-fold dilutions of each DMSO stock solution were prepared in singleton by combining 3 μL of DMSO stock with 297 μL of the appropriate media in a Millipore solubility filter plate with a […] polycarbonate filter membrane using Hamilton Starlet liquid handling. The final DMSO concentration is 1.0% and maximum theoretical compound concentration is 100 μM (assuming stock concentration of 10 mM). The filter plate was sealed. Following 24-hour incubation at ambient temperature (24.2-27.5° C.), the samples were vacuum filtered and the filtrates were collected in a 96 well polypropylene plate for analysis. The collection plate was sealed for analysis.
Filtrates were injected into the nitrogen detector for quantification. The results are reported here in μM.
Calculation of Results: The equimolar nitrogen response of the detector was calibrated using standards which spanned the dynamic range of the instrument from […] nitrogen. The filtrates were quantified with respect to this calibration curve. The calculated solubility values were corrected for background nitrogen present in the DMSO and the media used to prepare the samples. All reported values for compounds containing adjacent nitrogen atoms in a ring structure should be increased by ˜25%. […] The solubility results presented assume that the samples were free of nitrogen containing impurities and were stable under the assay conditions.

A short description of series [2]: Cytotoxicity assay in MT-4 cells. It counts as cell-based. As to conditions: human; uninfected MT-4 cells, 5 days incubation, Cell Titer Glo. The procedure: (§1) Compounds were tested in a high-throughput 384-well assay format for their ability to inhibit the replication of HIV-1 (IIIB) in MT-4 cells. Compounds were serially diluted (1:3) in DMSO on 384-well polypropylene plates and further diluted 200-fold into complete RPMI media (10% FBS, 1% P/S) using the Biotek Micro Flow and Labcyte ECHO acoustic dispenser. Each plate contained up to 8 test compounds, with negative (No Drug Control) and 5 μM AZT positive controls. MT-4 cells were pre-infected with 10 μL of either RPMI (mock-infected) or a fresh 1:250 dilution of HIV-1 IIIB concentrated virus stock. Infected and uninfected MT-4 cells were further diluted in complete RPMI media and added to each plate using a Micro Flow dispenser. After 5 days incubation in a humidified and temperature-controlled incubator (37° C.), Cell Titer Glo (Promega) was added to the assay plates and chemiluminescence read using an Envision plate-reader. EC50 values were defined as the compound concentration that causes a 50% decrease in luminescence signal, and were calculated using a sigmoidal dose-response model to generate curve fits. Assays were performed as above except uninfected MT-4 cells were added to each well containing test compound. In addition, 10 μM puromycin was added to the last column of each assay plate to assess a base level of cytotoxicity.
(Cellular ATP, detected with luciferase, serves as a proxy for viable cell number.)

Another series deals with HIV-1 (IIIB). As to the kind of experiment: Antiviral assay in MT-4 cells. It counts as cell-based. The following applies: Human immunodeficiency virus 1, MT4, 120 h; HIV-1 IIIB replication in MT-4 cells, 5 days incubation, Cell Titer Glo; read-out: EC50. The protocol: as §1, with “fits.” for “fits. Assays were performed as above except uninfected MT-4 cells were added to each well containing test compound. In addition, 10 μM puromycin was added to the last column of each assay plate to assess a base level of cytotoxicity.”

What is called solubility (kinetic) is the concentration staying in solution when a stock, usually in DMSO, is diluted into the medium. One may read the CC50 as the concentration that lowers cell viability or growth by half. A lower CC50 goes with harm at low concentration. In general, EC50 refers to the concentration needed to bring the measured effect to its halfway point. As for `C#C[C@]1(COC(=O)CCCCCC)O[C@@H](n2cnc3c(N)nc(F)nc32)C[C@@H]1OC(=O)CCCCCC` [Compound 17, (2R,3S,5R)-5-(6-amino-2-fluoro-9H-purin-9-yl)-2-ethynyl-2-((heptanoyloxy)methyl)tetrahydrofuran-3-yl heptanoate], in series [1], the kinetic solubility at 24 h was less than 1 µM. Also, the CC50 at 5 days in series [2] was greater than 20900 nM. For the same compound, the EC50 with HIV-1 (IIIB) turned out to be 7 nM.
`C#C[C@]1(COC(=O)CCCCCC)O[C@@H](n2cnc3c(NC(=O)CCCCCC)nc(F)nc32)C[C@@H]1OC(=O)CCCCCC` [Compound 18, (2R,3S,5R)-2-ethynyl-5-(2-fluoro-6-heptanamido-9H-purin-9-yl)-2-((heptanoyloxy)methyl)tetrahydrofuran-3-yl heptanoate-3-yl 2-((palmitoyloxy)methyl)benzoate] showed a solubility (kinetic) at 24 h in series [1] of 1.5 µM (≈ 0.945 µg/mL). This compound displayed a cytotoxic concentration (CC50) at 5 days in series [2] greater than 10100 nM. Further, in the series on HIV-1 (IIIB), the EC50 amounted to 20 nM.
